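These data come from cells grown in 96-well plates and exposed to compound for 48 hours at five concentrations. GI50 marks 50% less growth. TGI: concentration producing complete growth inhibition.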
Legend:
Assay in all cases: inhibition of tumour cell growth, NCI panel, 48 h
A549 NSCLC = system: A549 NSCLC
EKVX NSCLC = system: EKVX NSCLC
HOP-62 NSCLC = system: HOP-62 NSCLC
HOP-92 NSCLC = system: HOP-92 NSCLC
K-562 leukemia = system: K-562 leukemia
MALME-3M melanoma = system: MALME-3M melanoma
NCI/ADR-RES ovarian = system: NCI/ADR-RES ovarian
SK-MEL-28 melanoma = system: SK-MEL-28 melanoma
TK-10 renal = system: TK-10 renal
SR leukemia = system: SR leukemia

Row | Structure (SMILES) | GI50 (A549 NSCLC) | TGI (A549 NSCLC) | GI50 (EKVX NSCLC) | TGI (EKVX NSCLC) | GI50 (HOP-62 NSCLC) | TGI (HOP-62 NSCLC) | GI50 (HOP-92 NSCLC) | TGI (HOP-92 NSCLC) | GI50 (K-562 leukemia) | TGI (K-562 leukemia) | GI50 (MALME-3M melanoma) | TGI (MALME-3M melanoma) | GI50 (NCI/ADR-RES ovarian) | TGI (NCI/ADR-RES ovarian) | GI50 (SK-MEL-28 melanoma) | TGI (SK-MEL-28 melanoma) | GI50 (TK-10 renal) | TGI (TK-10 renal) | TGI (SR leukemia)
1 | CC(C)[C@H](N)C(=O)N1CCC[C@H]1B(O)O | > 100 µM | > 100 µM | > 100 µM | > 100 µM | > 100 µM | > 100 µM | > 100 µM | > 100 µM | > 100 µM | > 100 µM | > 100 µM | > 100 µM | > 100 µM | > 100 µM | > 100 µM | > 100 µM | > 100 µM | > 100 µM | 
2 | CCOc1ccc2c(c1)[n+]([O-])c(-c1ccc(Cl)cc1)c(N)[n+]2[O-] |  | > 100 µM |  | > 100 µM |  | > 100 µM |  | > 100 µM |  | > 100 µM |  | > 100 µM |  |  |  | > 100 µM |  |  | > 100 µM
3 | Oc1c(C(Nc2cccc3cccnc23)c2ccccc2)ccc2cccnc12 (centres undefined) |  | > 100 µM |  | > 100 µM |  | > 100 µM |  |  |  | > 100 µM |  | > 100 µM |  |  |  |  |  |  | 10.4 µM
4 | COc1ccc(C2=CC(c3ccc4c(c3)OCO4)c3c(c4ccccc4oc3=O)O2)cc1OC (centres undefined) |  | > 100 µM |  | > 100 µM |  | > 100 µM |  | > 100 µM |  |  |  | > 100 µM |  | > 100 µM |  | > 100 µM |  | > 100 µM | 
5 | CCC(C)(CC(C)(C)C(=O)NCC(=O)NC(Cc1ccccc1)C(=O)NC(Cc1ccccc1)C(=O)NCC(=O)NC1CC(OC2CC(O)(C(=O)CO)Cc3c(O)c4c(c(O)c32)C(=O)c2c(OC)cccc2C4=O)OC(C)C1O)C(=O)NCC(C)O (centres undefined) |  |  | > 150 µg/mL | > 150 µg/mL | 63.7 µg/mL | > 150 µg/mL | > 150 µg/mL | > 150 µg/mL | 86.3 µg/mL | > 150 µg/mL |  |  | > 150 µg/mL | > 150 µg/mL | > 150 µg/mL | > 150 µg/mL | > 150 µg/mL | > 150 µg/mL | 
6 | Cc1ccc(Nc2n[nH]c(=S)s2)cc1C |  | > 100 µM |  | > 100 µM |  | > 100 µM |  | > 100 µM |  | > 100 µM |  | > 100 µM |  | > 100 µM |  | > 100 µM |  | > 100 µM | 
7 | COc1ccc2c(c1)c(=O)oc1cc(OC/C(C)=N\O)ccc12 | > 100 µM | > 100 µM | 3.38 µM | > 100 µM | 28.7 µM | > 100 µM | 69.5 µM | > 100 µM | > 100 µM | > 100 µM | > 100 µM | > 100 µM | > 100 µM | > 100 µM | > 100 µM | > 100 µM | 44.8 µM | > 100 µM | 
8 | C=C(C)C(=O)O[C@H]1CC(=C)[C@@H]2C[C@H](O)[C@](O)(CCl)[C@@H]2[C@H]2OC(=O)C(=C)[C@@H]21 | 18.4 µM | 38.2 µM | 12.3 µM | 25.7 µM | 10.5 µM | 23.3 µM | 2.69 µM | 6.33 µM | 1.8 µM | 4.59 µM | 1.86 µM | 3.6 µM | 3.33 µM | 13.2 µM | 2.02 µM | 3.9 µM | 0.512 µM | 1.82 µM | 

Source: PubChem BioAssay (NCI)
